# Data as given in patent publication EP4265127A1, “WATER-SOLUBLE EMULSION COMPOSITION CONTAINING NATURAL POLYPHENOL COMPOUND” (Yun, Kwan Sik, priority 2020, dated 2022).
# Assay: Water solubility confirmation (organic material content quantified by Karl Fisher method)
# Type: physicochemical
# Experimental: According to the composition shown in Tables 38 to 61, the water-soluble antioxidant emulsion was added to the natural polyphenol compound emulsion, and then mixing and dispersing were performed at 500 rpm or less while checking the properties of the emulsion to prepare an natural polyphenol compound-containing water-soluble emulsion composition containing a water-soluble antioxidant emulsion. […] After 1 hour of centrifugation and filtering, an organic material content was quantified by measuring a water content using a Karl Fisher method.
row,Water solubility [%],Compound
1,0.00,COc1cc(/C=C/C(=O)CC(=O)/C=C/c2ccc(O)c(OC)c2)ccc1O [Generic Powdered Curcumin]
2,0.02,O=c1cc(-c2ccc(O)c(O)c2)oc2cc(O)cc(O)c12 [Generic Powdered Luteolin]
3,0.00,Oc1ccc(/C=C/c2cc(O)cc(O)c2)cc1 [Generic Powdered Resveratrol]
4,0.01,O=c1c(O)c(-c2ccc(O)cc2)oc2cc(O)cc(O)c12 [Generic Powdered kaempferol]
5,0.00,COc1ccc([C@@H]2CC(=O)c3c(O)cc(O[C@@H]4O[C@H](CO[C@@H]5O[C@@H](C)[C@H](O)[C@@H](O)[C@H]5O)[C@@H](O)[C@H](O)[C@H]4O)cc3O2)cc1O [Generic powdered Hesperidin]
6,0.00,O=c1c(O)c(-c2ccc(O)c(O)c2)oc2cc(O)cc(O)c12 [Generic powdered Quercetin]

row,Compound,Water solubility [%]
1,O=c1cc(-c2ccccc2)oc2cc(O)c(O)c(O)c12 [Generic Powdered Baicalein],0.00
2,O=C1C[C@@H](c2ccc(O)cc2)Oc2cc(O)cc(O)c21 [Generic Powdered Naringenin],0.04
